Test results as given in ChEMBL document CHEMBL1138648, “Synthesis of new N-(2-(trifluoromethyl)pyridin-4-yl)anthranilic acid derivatives and their evaluation as anticancer agents” (2004).

Tests used:
Type in all cases: functional
[1] = test system: HCT-15; test: Growth inhibitory activity against colon cancer HCT-15 cell line was determined; settings: Homo sapiens
[2] = test system: BT-549; test: Growth inhibitory activity against Breast cancer BT-549 cell line was determined; settings: Homo sapiens
[3] = test system: RPMI-8226; test: Growth inhibitory activity against Leukemia RPMI-8226 cell line was determined; settings: Homo sapiens
[4] = test system: UACC-257; test: Growth inhibitory activity against Melanoma UACC-257 cell line was determined; settings: Homo sapiens
[5] = test system: HL-60; test: Growth inhibitory activity against Leukemia HL-60(TB) cell line was determined; settings: Homo sapiens
[6] = test system: U-251; test: Growth inhibitory activity against CNS cancer U251 cell line was determined; settings: Homo sapiens
[7] = test system: HOP-92; test: Growth inhibitory activity against non small cell lung cancer HOP-92 cell line was determined; settings: Homo sapiens
[8] = test system: MOLT-4; test: Growth inhibitory activity against Leukemia MOLT-4 cell line was determined; settings: Homo sapiens
[9] = test system: MDA-MB-231; test: Growth inhibitory activity against Breast cancer MDA-MB-231/ATCC cell line was determined; settings: Homo sapiens
[10] = test system: COLO 205; test: Growth inhibitory activity against colon cancer COLO 205 cell line was determined; settings: Homo sapiens
[11] = test system: MDA-MB-435; test: Growth inhibitory activity against Breast cancer MDA-MB-435 cell line was determined; settings: Homo sapiens
[12] = test system: Hs-578T; test: Growth inhibitory activity against Breast cancer HS 578T cell line was determined; settings: Homo sapiens
[13] = test system: LOX IMVI; test: Growth inhibitory activity against Melanoma LOX IMVI cell line; settings: Homo sapiens
[14] = test system: 786-0; test: Growth inhibitory activity against Renal cancer 786-0 cell line was determined; settings: Homo sapiens
[15] = test system: TK-10; test: Growth inhibitory activity against Renal cancer TK-10 cell line was determined; settings: Homo sapiens
[16] = test system: DU-145; test: Growth inhibitory activity against Prostate cancer DU-145 cell line was determined; settings: Homo sapiens
[17] = test system: HCC 2998; test: Growth inhibitory activity against colon cancer HCC2998 cell line was determined; settings: Homo sapiens
[18] = test system: RXF 393; test: Growth inhibitory activity against Renal cancer RXF 393 cell line was determined; settings: Homo sapiens
[19] = test system: ACHN; test: Growth inhibitory activity against Renal cancer ACHN cell line was determined; settings: Homo sapiens
[20] = test system: NCI/ADR-RES; test: Growth inhibitory activity against Breast cancer NCI/ADR-RES cell line was determined; settings: Homo sapiens
[21] = test system: SW-620; test: Growth inhibitory activity against colon cancer SW-620 cell line was determined; settings: Homo sapiens
[22] = test system: SR; test: Growth inhibitory activity against Leukemia SR cell line was determined; settings: Homo sapiens
[23] = test system: CCRF-CEM; test: Growth inhibitory activity against Leukemia CCRF-CEM cell line was determined; settings: Homo sapiens
[24] = test system: A498; test: Growth inhibitory activity against Renal cancer A498 cell line was determined; settings: Homo sapiens
[25] = test system: SF-268; test: Growth inhibitory activity against CNS cancer SF-268 cell line was determined; settings: Homo sapiens
[26] = test system: M14; test: Growth inhibitory activity against Melanoma M14 cell line was determined; settings: Homo sapiens
[27] = test system: NCI-H460; test: In vitro percent of proliferation of vehicle treated NCI-H460 human lung cell lines was determined at 0.0010 M concentration
[28] = test system: OVCAR-3; test: Growth inhibitory activity against Ovarian cancer OVCAR-3 cell line was determined; settings: Homo sapiens
[29] = test system: UACC-62; test: Growth inhibitory activity against Melanoma UACC-62 cell line was determined; settings: Homo sapiens
[30] = test system: SNB-19; test: Growth inhibitory activity against CNS cancer SNB-19 cell line was determined; settings: Homo sapiens
[31] = test system: SF-295; test: Growth inhibitory activity against CNS cancer SF-295 cell line was determined; settings: Homo sapiens
[32] = test system: OVCAR-8; test: Growth inhibitory activity against Ovarian cancer OVCAR-8 cell line was determined; settings: Homo sapiens
[33] = test system: K562; test: Growth inhibitory activity against Leukemia K-562 cell line was determined; settings: Homo sapiens
[34] = test system: OVCAR-5; test: Growth inhibitory activity against Ovarian cancer OVCAR-5 cell line was determined; settings: Homo sapiens
[35] = test system: MCF7; test: In vitro percent of proliferation of vehicle treated MCF-7 human breast cell lines was determined at 0.0010 M concentration
[36] = test system: NCI-H23; test: Growth inhibitory activity against non small cell lung cancer NCI-H23 cell line was determined; settings: Homo sapiens
[37] = test system: SF-539; test: Growth inhibitory activity against CNS cancer SF-539 cell line was determined; settings: Homo sapiens
[38] = test system: HCT-116; test: Growth inhibitory activity against colon cancer HCT116 cell line was determined; settings: Homo sapiens
[39] = test system: SF-268; test: In vitro percent of proliferation of vehicle treated SF-268 human CNS cell lines was determined at 0.0010 M concentration
[40] = test system: NCI-H322M; test: Growth inhibitory activity against non small cell lung cancer NCI-H322M cell line was determined; settings: Homo sapiens
[41] = test system: OVCAR-4; test: Growth inhibitory activity against Ovarian cancer OVCAR-4 cell line was determined; settings: Homo sapiens
[42] = test system: SK-OV-3; test: Growth inhibitory activity against Ovarian cancer SK-OV-3 cell line was determined; settings: Homo sapiens
[43] = test system: EKVX; test: Growth inhibitory activity against non small cell lung cancer EKVX cell line was determined; settings: Homo sapiens
[44] = test system: NCI-H522; test: Growth inhibitory activity against non small cell lung cancer H522 cell line was determined; settings: Homo sapiens
[45] = test system: SK-MEL-5; test: Growth inhibitory activity against Melanoma SK-MEL-5 cell line was determined; settings: Homo sapiens
[46] = test system: CAKI-1; test: Growth inhibitory activity against Renal cancer CAKI-1 cell line was determined; settings: Homo sapiens
[47] = test system: A549; test: Growth inhibitory activity against non small cell lung cancer A549/ATCC cells; settings: Homo sapiens
[48] = test system: NCI-H460; test: Growth inhibitory activity against non small cell lung cancer H460 cell line was determined; settings: Homo sapiens
[49] = test system: HOP-62; test: Growth inhibitory activity against non small cell lung cancer HOP-62 cell line was determined; settings: Homo sapiens
[50] = test system: PC-3; test: Growth inhibitory activity against Prostate cancer PC-3 cell line was determined; settings: Homo sapiens
[51] = test system: HT-29; test: Growth inhibitory activity against colon cancer HT-29 cell line was determined; settings: Homo sapiens
[52] = test system: NCI-H226; test: Growth inhibitory activity against non small cell lung cancer NCI-H226 cell line was determined; settings: Homo sapiens
[53] = test system: SK-MEL-28; test: Growth inhibitory activity against Melanoma SK-MEL-28 cell line was determined; settings: Homo sapiens
[54] = test system: SN12C; test: Growth inhibitory activity against Renal cancer SN12C cell line was determined; settings: Homo sapiens
[55] = test system: KM12; test: Growth inhibitory activity against colon cancer KM12 cell line was determined; settings: Homo sapiens
[56] = test system: MCF7; test: Growth inhibitory activity against Breast cancer MCF-7 cell line was determined; settings: Homo sapiens

## CCOC(=O)CNC(=O)c1ccccc1Nc1ccnc(C(F)(F)F)c1
[1]
  GI50: 29 µM
[2]
  GI50: 36 µM
[3]
  GI50: 11 µM
[4]
  GI50: 69 µM
[5]
  GI50: 33 µM
[6]
  GI50: 18 µM
[7]
  GI50: 0.05 µM
[8]
  GI50: 16 µM
[9]
  GI50: 24 µM
[10]
  GI50: 19 µM
[11]
  GI50: 39 µM
[12]
  GI50: 46 µM
[13]
  GI50: 17 µM
[14]
  GI50: 29 µM
[15]
  GI50: 37 µM
[16]
  GI50: 27 µM
[17]
  GI50: 71 µM
[18]
  GI50: 19 µM
[19]
  GI50: 34 µM
[20]
  GI50: 51 µM
[21]
  GI50: 20 µM
[22]
  GI50: 17 µM
[23]
  GI50: 2.2 µM
[24]
  GI50: 64 µM
[25]
  GI50: 20 µM
[26]
  GI50: 25 µM
[27]
  Proliferation: 19%
[28]
  GI50: 24 µM
[29]
  GI50: 17 µM
[30]
  GI50: 30 µM
[31]
  GI50: 71 µM
[32]
  GI50: 26 µM
[33]
  GI50: 18 µM
[34]
  GI50: 26 µM
[35]
  Proliferation: 60%
[36]
  GI50: 22 µM
[37]
  GI50: 28 µM
[38]
  GI50: 21 µM
[39]
  Proliferation: 59%
[40]
  GI50: 32 µM
[41]
  GI50: 35 µM
[42]
  GI50: 29 µM
[43]
  GI50: 31 µM
[44]
  GI50: 22 µM
[45]
  GI50: 10 µM
[46]
  GI50: 16 µM
[47]
  GI50: 29 µM
[48]
  GI50: 20 µM
[49]
  GI50: 21 µM
[50]
  GI50: 22 µM
[51]
  GI50: 29 µM
[52]
  GI50: 100 µM
[53]
  GI50: 23 µM
[54]
  GI50: 24 µM
[55]
  GI50: 27 µM
[56]
  GI50: 25 µM
